Laboratory results from doi:10.1101/2023.10.11.561987v1, “Resolving the pharmacological redox-sensitivity of SARS-CoV-2 PLpro in drug repurposing screening enabled identification of the competitive GRL-0617 binding site inhibitor CPI-169” (biorxiv, 2023).

Target: T1, SARS-CoV-2 PLpro-NAB (Severe acute respiratory syndrome coronavirus 2, UniProt P0DTD1)
T1 construct: gene rep; nsp3 fragment with PLpro and NAB domains, cut from replicase polyprotein 1a/1ab; His tag removed by TEV; E. coli BL21(DE3), pET24b
Assay: biochemical
Type: biochemical

SMILES | IC50 [µM]
NC(Cc1cc(O)c(O)cc1O)C(=O)O (racemic) [6-Hydroxy-DL-DOPA] | > 20
Cc1nc2c(=O)n(C)c(=O)nc-2n(C)n1 [3-Methyl Toxoflavin] | 0.074
